According to ChEMBL document CHEMBL4402592, “Targeting Endoplasmic Reticulum α-Glucosidase I with a Single-Dose Iminosugar Treatment Protects against Lethal Influenza and Dengue Virus Infections” (J Med Chem, 2020):

Assays:
Type in all cases: functional
dengue virus type 2 = assay: Antiviral activity against Dengue virus 2 S221 infected in DENV antibody dependent enhancement AG129 mouse model assessed as animal survival at 375 mg/kg, po administered via gavage as two doses at 8 and 24 hrs post infection (reference value: 4%)
Influenza A virus [1] = assay: Antiviral activity against Influenza A virus (A/Texas/36/1991(H1N1)) infected in BALB/c mouse assessed as animal survival at 100 mg/kg, po administered via gavage starting at 8 hrs post-infection and continuing TID for 5 days (reference value: 0%)
Influenza A virus [2] = assay: Antiviral activity against Influenza A virus (A/Texas/36/1991(H1N1)) infected in BALB/c mouse assessed as animal survival at 500 mg/kg, po administered via gavage as two doses at 8 and 32 hrs post infection (reference value: 0%)

COCCCCCCCCCN1C[C@H](O)[C@@H](O)[C@H](O)[C@H]1CO.Cl
survival at 375 mg/kg (dengue virus type 2): 82% | survival at 100 mg/kg (Influenza A virus [1]): 90% | survival at 500 mg/kg (Influenza A virus [2]): 100%
